In patent US5086056A, “2-(heterocyclylalkyl)imidazopyridines” (Janssen Pharmaceutica N.V., priority 1987, dated 1992):

Test system: compound 48/80-induced lethality
Test: Protection of rats from compound 48/80-induced lethality
Assay type: in vivo, rat (male, inbred Wistar strain)
Conditions: Rattus norvegicus; dose protecting 50% of animals; s.c. or oral, 1 hour before compound 48/80 0.5 mg/kg i.v.; survival after 4 hours; read-out: compound 48/80 lethality test in rats-ED50
From the text: Protection of rats from compound 48/80-induced lethality
Compound 48/80, a mixture of oligomers obtained by condensation of 4-methoxy-N-methylbenzeneethanamine and formaldehyde has been described as a potent histamine releasing agent (Int. Arch. Allergy, 13, 336 (1958)). The protection from compound 48/80-induced lethal circulatory collapse appears to be a simple way of evaluating quantitatively the antihistaminic activity of test compounds. Male rats of an inbred Wistar strain, weighing 240-260 g were used in the experiment. After overnight starvation the rats were transferred to conditioned laboratories (temp.=21°±1° C., relative humidity=65±5%). The rats were treated subcutaneously or orally with a test compound or with the solvent (NaCl solution, 0.9%). One hour after treatment there was injected intraveneously compound 48/80, freshly dissolved in water, at a dose of 0.5 mg/kg (0.2 ml/100 g of body weight). In control experiments, wherein 250 solvent-treated animals were injected with the standard dose of compound 48/80, not more than 2.8% of the animals survived after 4 hours. Survival after 4 hours is therefore considered to be a safe criterion of a protective effect of drug administration. Said ED50 -values are the values in mg/kg body weight at which the tested compounds protect 50% of the tested animals against compound 48/80-induced lethality.

Structure (SMILES) | ED50 [mg/kg]
CCOCCn1c(CN2CCN(CCC(=O)NC(C)C)CC2)nc2cccnc21 [Compound 93, 4-[[3-(2-ethoxyethyl)-3H-imidazo[4,5-b]pyridin-2-yl]methyl]-N-(1-methylethyl)-1-piperazinepropanamide] | 0.01
CCOCCn1c(CN2CCN(CCNC(=O)c3ccoc3)CC2)nc2cccnc21 [Compound 110, N-[2-[4-[[3-(2-ethoxyethyl)-3H-imidazo[4,5-b]pyridin-2-yl]methyl]-1-piperazinyl]ethyl]-3-furancarboxamide] | 0.01
Cc1ccc(Cn2c(CN3CCN(C)CC3)nc3cccnc32)o1 [Compound 14, 3-[(5-methyl-2-furanyl)methyl]-2-[ (4-methyl-1-piperazinyl)methyl]-3H-imidazo[4,5-b]pyridine] | 0.01
CCOCCn1c(CN2CCN(CCCOc3ccc(F)cc3)CC2)nc2cccnc21 [Compound 79, 3-(2-ethoxyethyl)-2-[[4-[3-(4-fluorophenoxy)propyl]-1-piperazinyl]methyl]-3H-imidazo[4,5-b]pyridine] | 0.02
CCOCCn1c(CN2CCN(CCc3ccc(OC)cc3)CC2)nc2cccnc21 [Compound 47] | 0.02
CCOCCn1c(CN2CCN(CCc3c(C)nc4ccccn4c3=O)CC2)nc2cccnc21 [Compound 76, 3-[2-[4-[[3-(2-ethoxyethyl)-3H-imidazo[4,5-b]pyridin-2-yl]methyl]-1-piperazinyl]ethyl]-2-methyl-4H-pyrido[1,2-a]pyrimidin-4-one] | 0.02
CCOCCN1CCN(Cc2nc3cccnc3n2CCOCC)CC1 [Compound 42] | 0.02
C#CCOCCn1c(CN2CCN(C)CC2)nc2cccnc21 [Compound 125, 2-[(4-methyl-1-piperazinyl)methyl]-3-[2-(2-propynyloxy)ethyl]-3H-imidazo[4,5-b]pyridine] | 0.02
CCOCCn1c(CN2CCN(C)CC2)nc2cccnc21 [Compound 17, 3-(2-ethoxyethyl)-2-[(4-methyl-1-piperazinyl)methyl]-3H-imidazo[4,5-b]pyridine] | 0.04
C=CCOCCn1c(CN2CCN(C)CC2)nc2cccnc21 [Compound 126, 2-[(4-methyl-1-piperazinyl)methyl]-3-[2-(2-propenyloxy)ethyl]-3H-imidazo[4,5-b]pyridine] | 0.02
CCOCCn1c(CN2CCN(CCCn3c(=O)[nH]c4ccccc43)CC2)nc2cccnc21 [Compound 77, 1-[3-[4-[[3-(2-ethoxyethyl)-3H-imidazo[4,5-b]pyridin-2-yl]methyl]-1piperazinyl]propyl]-1,3-dihydro-2H-benzimidazol-2-one] | 0.02
CCOCCn1c(CN2CCN(CCCC(C)=O)CC2)nc2cccnc21 [Compound 44] | 0.005
CCOCCn1c(CN2CCN(CCNc3ncccn3)CC2)nc2cccnc21 [Compound 105, N-[2-[-4-[[3-(2-ethoxyethyl)-3H-imidazo[4,5-b]pyridin-2-yl]methyl]-1-piperazinyl]ethyl]-2-pyrimidinamine] | 0.01
CCOCCn1c(CN2CCN(CCc3scnc3C)CC2)nc2cccnc21 [Compound 74, 3-(2-ethoxyethyl)-2-[[4-[2-(4-methyl-5-thiazolyl)ethyl]-1-piperazinyl]methyl]-3H-imidazo[4,5-b]pyridine] | 0.01
CCOCCn1c(CN2CCN(CCNC(=O)c3cccn3C)CC2)nc2cccnc21 [Compound 111, N-[2-[4-[[3-(2-ethoxyethyl)-3H-imidazo[4,5-b]pyridin-2-yl]methyl]-1-piperazinyl]ethyl]-1-methyl-1H-pyrrole-2-carboxamide] | 0.02
CCOCCn1c(CN2CCN(CCc3ccccn3)CC2)nc2cccnc21 [Compound 120, 3-(2-ethoxyethyl)-2-[[4-[2-(2-pyridinyl)ethyl]-1-piperazinyl]methyl]-3H-imidazo[4,5-b]pyridine] | 0.005
